Calls of active or inactive are those of the source. The rule behind the calls is not given here.
Columns and labels:
HCT-116 [1] = experiment: Effect on HSPA1A expression in human HCT-116 cells upto 6 uM incubated for 30 mins followed by pronase addition measured after 30 mins by DARTS assay; type: functional, cell-based
HCT-116 [2] = experiment: Induction of apoptosis in human HCT-116 cells at 1.2 uM in presence of NAC by Annexin V-FITC/PI staining based flow cytometry; type: functional, cell-based
HCT-116 [3] = experiment: Inhibition of cell viability in human HCT-116 cells at 0.3 to 1.2 uM incubated for 48 hrs; type: functional, cell-based; settings: dose 0.3-1.2 µM
HCT-116 [4] = experiment: Induction of cell cycle arrest in human HCT-116 cells assessed as decrease in cyclin A2 level incubated for 48 hrs by Western blot analysis; type: functional, cell-based; settings: dose 0.3-1.2 µM
HCT-116 [5] = experiment: Induction of cell cycle arrest in human HCT-116 cells assessed as accumulation at G2 phase at 0.6 uM incubated for 48 hrs by PI staining based flow cytometry (reference value: 6.08 %); type: functional
HCT-116 [6] = experiment: Induction of apoptosis in human HCT-116 cells assessed as late apoptotic cells at 0.3 uM incubated for 48 hrs by Annexin V-FITC/PI staining based flow cytometry (reference value: 1.55 %); type: functional
HCT-116 [7] = experiment: Antiproliferative activity against human HCT-116 cells assessed as inhibition of cell viability incubated for 48 hrs by CCK8 assay; type: functional, cell-based; settings: HCT-116, 48 h
HCT-116 [8] = experiment: Induction of apoptosis in human HCT-116 cells harboring siNC assessed as necrotic cells at 1.2 uM by Annexin V-FITC/PI staining based flow cytometry (reference value: 0.21 %); type: functional
CT26 [9] = experiment: Antitumor activity against mouse CT26 cells implanted in BALB/c mouse assessed as reduction in tumor volume administered intraperitoneally once daily for 14 days; type: functional; settings: dose 15-45 mg/kg, route ip, time 14.0 day
HCT-116 [10] = experiment: Induction of apoptosis in human HCT-116 cells harboring siNC assessed as viable cells at 1.2 uM by Annexin V-FITC/PI staining based flow cytometry (reference value: 96.9 %); type: functional; settings: read-out: Activity
HCT-116 [11] = experiment: Induction of apoptosis in human HCT-116 cells assessed as early apoptotic cells at 0.3 uM incubated for 48 hrs by Annexin V-FITC/PI staining based flow cytometry (reference value: 1.12 %); type: functional
HCT-116 [12] = experiment: Induction of apoptosis in human HCT-116 cells assessed as increase in cleaved caspase-3 level at 0.3 to 1.2 uM incubated for 48 hrs by Western blot analysis; type: functional, cell-based; settings: dose 0.3-1.2 µM
HCT-116 [13] = experiment: Induction of DNA damage in human HCT-116 cells assessed as increase in p53 level at 0.3 to 1.2 uM incubated for 48 hrs by Western blot analysis; type: functional, cell-based; settings: dose 0.3-1.2 µM
HCT-116 [14] = experiment: Anti-proliferative activity against human HCT-116 cells harboring siNC assessed as decrease in p-p38 level at 1.2 uM by Western blot analysis; type: functional, cell-based
HCT-116 [15] = experiment: Induction of ER stress in human HCT-116 cells assessed as increase in PERK level at 0.3 to 1.2 uM by Western blot analysis; type: functional, cell-based; settings: dose 0.3-1.2 µM
HCT-116 [16] = experiment: Induction of apoptosis in human HCT-116 cells harboring siPPIA-3 assessed as late apoptotic cells at 1.2 uM by Annexin V-FITC/PI staining based flow cytometry (reference value: 3.44 %); type: functional
HCT-116 [17] = experiment: Induction of mitochondrial dysfunction in human HCT-116 cells at 0.3 to 1.2 uM incubated for 48 hrs by Mito-Tracker Green probe based analysis; type: functional, cell-based; settings: dose 0.3-1.2 µM
[18] = Toxicity in BALB/c mouse implanted with mouse CT26 cells assessed as abnormality in spleen at 15 to 45 mg/kg, ip qd treated for 14 days by H and E staining based analysis; type: organism-based; settings: in vivo, 336 h, dose 15-45 mg/kg, time 14 day
HCT-116 [19] = experiment: Induction of cell cycle arrest in human HCT-116 cells assessed as accumulation at G2 phase at 1.2 uM incubated for 48 hrs by PI staining based flow cytometry (reference value: 6.08 %); type: functional
[20] = Acute toxicity in BALB/c mouse assessed as death rate at 250 mg/kg, ip measured for 14 days; type: organism-based; settings: both, in vivo, time 14 day, read-out: Activity
HCT-116 [21] = experiment: Induction of apoptosis in human HCT-116 cells assessed as increase in p53 level at 1.2 uM in presence of NAC by Western blot analysis; type: functional, cell-based
HCT-116 [22] = experiment: Anti-migration activity in human HCT-116 cells harboring siNC at 1.2 uM incubated for 24 hrs by wound healing assay; type: functional, cell-based
HCT-116 [23] = experiment: Induction of apoptosis in human HCT-116 cells assessed as necrotic cells at 0.6 uM incubated for 48 hrs by Annexin V-FITC/PI staining based flow cytometry (reference value: 1.15 %); type: functional
CT26 [24] = experiment: Antitumor activity against mouse CT26 cells implanted in BALB/c mouse assessed as reduction in tumor weight administered intraperitoneally once daily for 14 days; type: functional; settings: dose 15-45 mg/kg, route ip, time 14.0 day
[25] = Acute toxicity in BALB/c mouse assessed as death rate at 700 mg/kg, ip measured for 14 days; type: organism-based; settings: both, in vivo, time 14 day, read-out: Activity
HCT-116 [26] = experiment: Induction of apoptosis in human HCT-116 cells harboring siPPIA-3 assessed as viable cells at 1.2 uM by Annexin V-FITC/PI staining based flow cytometry (reference value: 87.9 %); type: functional; settings: read-out: Activity
HCT-116 [27] = experiment: Induction of cell cycle arrest in human HCT-116 cells assessed as accumulation at S phase at 0.3 uM incubated for 48 hrs by PI staining based flow cytometry (reference value: 34.55 %); type: functional
HCT-116 [28] = experiment: Induction of DNA damage in human HCT-116 cells assessed as increase in orange fluorescence incubated for 48 hrs by AO staining based analysis; type: functional, cell-based; settings: dose 0.3-1.2 µM
[29] = Stability in mouse plasma assessed as half life measured upto 24 hrs by HPLC analysis; type: ADME, cell-free
HCT-116 [30] = experiment: Induction of intracellular ROS generation in human HCT-116 cells harboring siNC at 1.2 uM by flow cytometry (reference value: 8.22 %); type: functional
HCT-116 [31] = experiment: Effect on COTL1 expression in human HCT-116 cells upto 6 uM incubated for 30 mins followed by pronase addition measured after 30 mins by DARTS assay; type: functional, cell-based
[32] = Toxicity in BALB/c mouse implanted with mouse CT26 cells assessed as injury in heart at 15 to 45 mg/kg, ip qd treated for 14 days by H and E staining based analysis; type: organism-based; settings: in vivo, 336 h, dose 15-45 mg/kg, time 14 day
HCT-116 [33] = experiment: Induction of cell cycle arrest in human HCT-116 cells assessed as decrease in CDK4 level incubated for 48 hrs by Western blot analysis; type: functional, cell-based; settings: dose 0.3-1.2 µM
HCT-116 [34] = experiment: Induction of apoptosis in human HCT-116 cells harboring siPPIA-3 assessed as necrotic cells at 1.2 uM by Annexin V-FITC/PI staining based flow cytometry (reference value: 0.87 %); type: functional
HCT-116 [35] = experiment: Induction of apoptosis in human HCT-116 cells assessed as necrotic cells at 0.3 uM incubated for 48 hrs by Annexin V-FITC/PI staining based flow cytometry (reference value: 1.15 %); type: functional
HCT-116 [36] = experiment: Effect on SRSF7 expression in human HCT-116 cells upto 6 uM incubated for 30 mins followed by pronase addition measured after 30 mins by DARTS assay; type: functional, cell-based
HCT-116 [37] = experiment: Anti-migration activity in human HCT-116 cells harboring siPPIA-3 at 1.2 uM incubated for 24 hrs by wound healing assay; type: functional, cell-based

Structure (SMILES): C=C(C(=O)OC)N1c2nc(Cl)nc(Cl)c2N2C(c3ccccc3F)OC(C(=O)OCC)(C(=O)OCC)C12 (racemic)
- Activity (HCT-116 [1]): No effect
- Activity (HCT-116 [2]): inactive
- inhibition (HCT-116 [3]): Active
- Activity (HCT-116 [4]): Dose-dependent-effect
- Activity (HCT-116 [5]): 4.71%
- Activity (HCT-116 [6]): 3.56%
- IC50 (HCT-116 [7]): 510 nM
- Activity (HCT-116 [8]): 0.57%
- Activity (CT26 [9]): Dose-dependent-effect
- viability at 1.2 µM (HCT-116 [10]): 77.8%
- Activity (HCT-116 [11]): 11.7%
- Activity (HCT-116 [12]): Active
- Activity (HCT-116 [13]): Active
- Activity (HCT-116 [14]): Active
- Activity (HCT-116 [15]): Active
- Activity (HCT-116 [16]): 3.25%
- Activity (HCT-116 [17]): Active
- Activity [18]: Non-toxic
- Activity (HCT-116 [19]): 2.78%
- mortality at 336 h [20]: 10%
- Activity (HCT-116 [21]): inactive
- Activity (HCT-116 [22]): Active
- Activity (HCT-116 [23]): 2.12%
- Activity (CT26 [24]): Dose-dependent-effect
- mortality at 336 h [25]: 100%
- viability at 1.2 µM (HCT-116 [26]): 87%
- Activity (HCT-116 [27]): 27.89%
- Activity (HCT-116 [28]): Dose-dependent-effect
- half-life [29]: 4.78 h
- Activity (HCT-116 [30]): 22.9%
- Activity (HCT-116 [31]): No effect
- Activity [32]: Non-toxic
- Activity (HCT-116 [33]): Dose-dependent-effect
- Activity (HCT-116 [34]): 1.09%
- Activity (HCT-116 [35]): 1.8%
- Activity (HCT-116 [36]): No effect
- Activity (HCT-116 [37]): inactive
